Measured values reported in BindingDB's records for doi:10.1021/acs.jmedchem.5b00984 (Astrazeneca, 2015).

The molecules below were run against T1, Progesterone receptor (Homo sapiens, UniProt P06401) (assay: Antagonist activity at progesterone receptor in human MCF cells assessed as estradiol-induced receptor response).
T1 sequence (P06401 whole entry): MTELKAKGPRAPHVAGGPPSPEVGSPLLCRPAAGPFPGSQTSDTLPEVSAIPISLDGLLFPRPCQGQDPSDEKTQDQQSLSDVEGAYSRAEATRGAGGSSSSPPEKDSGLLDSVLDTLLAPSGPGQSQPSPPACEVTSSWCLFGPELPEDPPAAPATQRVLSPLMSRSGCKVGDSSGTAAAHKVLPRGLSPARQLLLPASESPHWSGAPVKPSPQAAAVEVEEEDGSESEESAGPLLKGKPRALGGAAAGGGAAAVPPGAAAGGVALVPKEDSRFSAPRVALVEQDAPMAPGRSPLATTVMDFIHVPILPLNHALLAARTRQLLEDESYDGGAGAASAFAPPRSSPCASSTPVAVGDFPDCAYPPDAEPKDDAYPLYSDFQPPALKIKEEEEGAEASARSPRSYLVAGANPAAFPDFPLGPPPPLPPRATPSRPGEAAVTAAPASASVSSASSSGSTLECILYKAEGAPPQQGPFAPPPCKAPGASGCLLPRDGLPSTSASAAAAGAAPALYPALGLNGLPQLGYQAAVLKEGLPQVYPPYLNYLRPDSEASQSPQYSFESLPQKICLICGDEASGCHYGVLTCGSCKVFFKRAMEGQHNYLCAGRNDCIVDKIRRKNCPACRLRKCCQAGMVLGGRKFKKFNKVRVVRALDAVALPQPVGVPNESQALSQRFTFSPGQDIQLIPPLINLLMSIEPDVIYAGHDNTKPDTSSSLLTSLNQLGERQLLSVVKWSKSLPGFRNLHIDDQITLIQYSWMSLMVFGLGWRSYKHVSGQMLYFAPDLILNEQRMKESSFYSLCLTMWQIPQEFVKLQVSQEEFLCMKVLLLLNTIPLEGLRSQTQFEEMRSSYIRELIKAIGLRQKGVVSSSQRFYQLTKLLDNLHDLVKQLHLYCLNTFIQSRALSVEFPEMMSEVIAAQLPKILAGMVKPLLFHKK

| IC50 | Compound |
| --- | --- |
| 3.5 nM | C[C@@H]1Cc2c([nH]c3ccccc23)[C@@H](c2ccc(/C=C/C(=O)O)cc2)N1CC(C)(C)F |
| 0.832 nM | CC(C)CN1[C@H](c2c(F)cc(/C=C/C(=O)O)cc2F)c2[nH]c3ccccc3c2C[C@H]1C |
| 3.6 nM | CC(C)CN1[C@H](c2ccc(/C=C/C(=O)O)cc2)c2[nH]c3ccccc3c2C[C@H]1C |
| 50 nM | C[C@@H](CO)CN1[C@H](c2ccc(/C=C/C(=O)O)cc2)c2[nH]c3ccccc3c2C[C@H]1C |
| 2290 nM | C[C@@H]1Cc2c([nH]c3ccccc23)[C@@H](c2ccc(/C=C/C(=O)O)cc2)N1CCO |
| 2090 nM | C[C@@H]1Cc2c([nH]c3ccccc23)[C@@H](c2ccc(Cl)cc2)N1C[C@H](C)C(=O)O |
| 912 nM | C[C@@H]1Cc2c([nH]c3ccc(O)cc23)[C@@H](c2ccc(Cl)cc2)N1CCO |
| 1510 nM | C[C@@H]1Cc2c([nH]c3ccccc23)[C@@H](c2ccc(Cl)cc2)N1CCC(=O)O |
| 724 nM | C[C@@H]1Cc2c([nH]c3ccccc23)[C@@H](c2ccc(Cl)cc2)N1CCO |
| 2690 nM | OCCN1CCc2c([nH]c3ccccc23)C1c1ccc(Cl)cc1 (centres undefined) |
| 3980 nM | CC/C(=C(\c1ccccc1)c1ccc(/C=C/C(=O)O)cc1)c1ccccc1 [(E)-3-[4-((Z)-1,2-Diphenyl-but-1-enyl)-phenyl]-acrylic acid] |
| 12 nM | CC/C(=C(\c1ccc(O)cc1)c1ccc(/C=C/C(=O)O)cc1)c1ccccc1 [GW7604] |

| Compound | IC50 |
| --- | --- |
| C[C@]12CC[C@@H]3c4ccc(O)cc4C[C@@H](CCCCCCCCC[S+]([O-])CCCC(F)(F)C(F)(F)F)[C@H]3[C@@H]1CC[C@@H]2O (some centres undefined) | 0.209 nM |
| CC/C(=C(\c1ccc(O)cc1)c1ccc(OCCN(C)C)cc1)c1ccccc1 [[3H]4-OHT] | 0.794 nM |
